Reference: patent EP0137426A2, “2-Mercaptothiazole derivatives, process for their preparation and utilization of 2-mercaptothiazole derivatives in pharmaceutical compounds” (BAYER AG, priority 1983, dated 1985)

Experiments:
TXA2 [1] = test: Inhibition of thromboxane-induced isometric contraction of rabbit aortic strips (TXA2 generated from washed human platelets); type: cell-based, Kaninchen; details: Oryctolagus cuniculus, Platelet, thromboxane-induced vessel contraction, read-out: Hemmung (%) (x̄ ± SEM); for inhibition at 30 µg/mL: Konzentration 3 x 10^-5 g/ml
Procedure: Gefäßkonstriktorische Wirkung
Die gefäßkonstriktorische Wirkung von Thromboxan wird mit Hilfe der isometrischen Kontraktion von Kaninchenaortenstreifen gemessen (Furchtgott, R. F; Bhadrakom, S. J., Pharmacol. Exp. Ther. 108, 129 - 143, 1953). Männliche Kaninchen (Russen, Gewicht 1,8 - 2 kg) werden mit Pento- -barbital getötet. Die Brustaorta wird entnommen und spiral--förmig aufgeschnitten. Die Streifen (Breite 2 - 3 mm, Länge 3 cm) werden unter einer Spannung von 2 g in 10 ml - Organbädern, die Carbogen durchperlten Krebs-Henseleit-Puffer von 37°C enthalten, suspendiert. Zur Erhöhung der Spezifität der Methode enthält der Puffer folgende Inhibitoren (jeweils 100 µg/l): Propanololhydrochlorid, Phentolamin, Cyproheptadin, Atropin, Mebhydrolin und Indometacin. Die Kontraktionen werden nach Erreichen eines konstanten Basaltonus durch TXA2, generiert aus gewaschenen Human-Thrombozyten, ausgelöst.
Zur Präparation der Thrombozytensuspension wird Humanblut in 1 %iger EDTA-Lösung aufgenommen und bei 150 G 20 Minuten lang zentrifugiert. Das plättchenreiche Plasma wird abgehebert und bei 750 G für 20 Minuten zentrifugiert. Das plättchenarme Plasma wird abdekantiert und die verbleibenden Plättchen in Puffer (0,15 M NaCl, 0,15 M Tris/ HC1 pH 7.4, 77 mM EDTA; 90 : 8 : 2) aufgenommen.
Die Thromboxan-Generation erfolgt durch Stimulation der Plättchen mit Thrombin bei 37°C unter Rühren. Nach 30 sec wird die Plättchensuspension zu dem mit Prüfsubstanz bzw. Lösungsmittel vorbehandelten Aortenstreifen gegeben und damit die Kontraktionen ausgelöst. Die prozentuale Hemmung errechnet sich aus den entsprechenden Ausschlägen.
An den in der folgenden Tabelle 1 genannten Verbindungen wurde die spezifische Hemmung der durch Thromboxan induzierten Gefäßkontraktionen bestimmt.

Thrombozyten = test: Inhibition of collagen-induced platelet aggregation in platelet-rich plasma (turbidimetric, Born); type: cell-based; details: Homo sapiens, Konzentration 3 x 10^-5 g/ml, PRP, 37°C, read-out: Hemmung (%) (x̄ ± SEM)
Procedure: Thrombocytenaggregationshemmung
Für die Bestimmung der thrombocytenaggregationshemmenden Wirkung wird Blut von gesunden Spendern, die mindestens 14 Tage lang kein Medikament eingenommen hatten, verwendet. Das Blut wird in 3.8 %iger Natriumcitratlösung aufgenommen. Plättchenreiches Plasma (PRP) wird durch 20 min. lange Zentrifugation bei 150 G bei Raumtemperatur gewonnen (Jürgens/Beller: Klinische Methoden der Blutgerinnungsanalyse; Thieme-Verlag, Stuttgart 1959). Die Plättchenaggregation wird nach der turbidometrischen Methode (Born, G. V. R.: J. Physiol. 162 67, 1962) im Aggregometer bei 37°C bestimmt. Hierzu wird PRP mit Prüfsubstanz bei 37°C inkubiert und anschließend die Aggregation durch Zugabe einer Kollagensuspension ausgelöst. Die prozentuale Hemmung errechnet sich aus den entsprechenden Ausschlägen.
An den in der folgenden Tabelle 2 genannten Verbindungen wurde die Hemmung der Kollagen-induzierten Thrombozytenaggregation untersucht.

TXA2 [2] = details: literature: Tanaka, Harada, Katori, Prostaglandins 17, 235, 1979; cited from earlier work

| Compound | inhibition at 30 µg/mL (TXA2 [1]) [%] | inhibition at 30 µg/mL (Thrombozyten) [%] | further results |
| --- | --- | --- | --- |
| O=C(O)CCCCSc1nc2ccccc2s1 [Beispiel 25] | 31 ± 18 |  |  |
| O=C(O)CCCSc1nc(Cl)c(Cl)s1 [Beispiel 21] | 59 ± 6 | 69 |  |
| O=C(O)CCCSc1nc2cc(F)c(F)cc2s1 [Beispiel 11a] | 82 ± 1 |  |  |
| CCOC(=O)c1c(C)cc2c(CO)n[nH]c(=O)c2c1C [Phthalazinol] |  |  | Wirkung als spezifischer TXA2-Antagonist (TXA2 [2]): nicht als spezifischer TXA2-Antagonist |
| O=C(O)CCCCSc1nc(Cl)c(Cl)s1 [Beispiel 23] | 47 ± 10 |  |  |
| O=C(O)CCCSc1nc2ccccc2s1 [Beispiel 9] | 84 ± 3 | 52 | inhibition at 100 µg/mL (TXA2 [1]; Konzentration 1 x 10^-4 g/ml): 100%; inhibition at 10 µg/mL (TXA2 [1]; Konzentration 1 x 10^-5 g/ml): 58 ± 7%; inhibition at 1 µg/mL (TXA2 [1]; Konzentration 1 x 10^-6 g/ml): 16 ± 7%; inhibition at 3 µg/mL (TXA2 [1]; Konzentration 3 x 10^-6 g/ml): 34 ± 6% |
